The text below walks through data of ChEMBL document CHEMBL5465560, “Selectivity Literature for EUbOPEN Chemogenomic Library” (2024).

Molecules are shown by their SMILES.

Assay [1] deals with T1, Mitogen-activated protein kinase 13 (Homo sapiens) (UniProt O15264).
T1 sequence (whole entry): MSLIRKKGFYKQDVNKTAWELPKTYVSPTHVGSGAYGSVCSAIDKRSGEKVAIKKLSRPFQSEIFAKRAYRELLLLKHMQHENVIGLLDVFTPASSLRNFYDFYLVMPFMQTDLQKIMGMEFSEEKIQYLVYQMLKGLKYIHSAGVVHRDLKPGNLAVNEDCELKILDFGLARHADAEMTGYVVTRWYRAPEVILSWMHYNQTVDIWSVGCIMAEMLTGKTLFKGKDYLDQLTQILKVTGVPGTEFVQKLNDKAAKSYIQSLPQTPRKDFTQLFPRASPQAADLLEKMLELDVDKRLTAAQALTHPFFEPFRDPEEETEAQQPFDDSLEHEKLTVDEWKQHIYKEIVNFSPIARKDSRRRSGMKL
Kind of assay: Selectivity interaction (Upstate Kinase Profiler service (Millipore)) EUB0000056c MAPK13. The note with it: at 1 µM.

The target in assay [2] is T2, Peripheral plasma membrane protein CASK (Homo sapiens) (UniProt O14936).
T2 sequence (whole entry): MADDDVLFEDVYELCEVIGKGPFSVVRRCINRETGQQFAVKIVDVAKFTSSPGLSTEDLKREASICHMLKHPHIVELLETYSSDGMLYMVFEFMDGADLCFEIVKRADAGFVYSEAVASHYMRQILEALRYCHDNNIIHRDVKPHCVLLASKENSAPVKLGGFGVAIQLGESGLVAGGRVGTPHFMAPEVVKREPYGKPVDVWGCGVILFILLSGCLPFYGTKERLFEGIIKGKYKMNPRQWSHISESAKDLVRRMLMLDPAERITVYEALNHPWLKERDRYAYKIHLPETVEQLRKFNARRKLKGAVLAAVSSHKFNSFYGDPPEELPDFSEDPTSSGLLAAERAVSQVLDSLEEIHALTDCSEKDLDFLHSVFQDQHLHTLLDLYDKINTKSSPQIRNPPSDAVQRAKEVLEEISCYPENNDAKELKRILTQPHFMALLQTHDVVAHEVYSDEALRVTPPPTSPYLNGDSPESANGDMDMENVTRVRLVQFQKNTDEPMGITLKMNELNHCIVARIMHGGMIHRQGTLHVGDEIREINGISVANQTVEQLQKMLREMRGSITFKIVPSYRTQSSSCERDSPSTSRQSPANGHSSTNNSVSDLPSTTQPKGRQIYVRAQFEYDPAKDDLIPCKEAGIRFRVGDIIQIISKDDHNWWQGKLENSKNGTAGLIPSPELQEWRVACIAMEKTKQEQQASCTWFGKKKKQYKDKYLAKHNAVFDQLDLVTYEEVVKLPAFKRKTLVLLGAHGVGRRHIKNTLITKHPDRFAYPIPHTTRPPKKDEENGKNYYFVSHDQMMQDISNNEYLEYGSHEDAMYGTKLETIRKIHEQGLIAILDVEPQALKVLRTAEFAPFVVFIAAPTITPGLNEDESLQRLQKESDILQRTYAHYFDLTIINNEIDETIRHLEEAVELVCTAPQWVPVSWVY
Kind of assay: Selectivity interaction (Kinase panel (DSF assay)) EUB0001558a CASK.

In assay [3] the target is T3, Ephrin type-B receptor 4 (Homo sapiens) (UniProt P54760).
T3 sequence (whole entry): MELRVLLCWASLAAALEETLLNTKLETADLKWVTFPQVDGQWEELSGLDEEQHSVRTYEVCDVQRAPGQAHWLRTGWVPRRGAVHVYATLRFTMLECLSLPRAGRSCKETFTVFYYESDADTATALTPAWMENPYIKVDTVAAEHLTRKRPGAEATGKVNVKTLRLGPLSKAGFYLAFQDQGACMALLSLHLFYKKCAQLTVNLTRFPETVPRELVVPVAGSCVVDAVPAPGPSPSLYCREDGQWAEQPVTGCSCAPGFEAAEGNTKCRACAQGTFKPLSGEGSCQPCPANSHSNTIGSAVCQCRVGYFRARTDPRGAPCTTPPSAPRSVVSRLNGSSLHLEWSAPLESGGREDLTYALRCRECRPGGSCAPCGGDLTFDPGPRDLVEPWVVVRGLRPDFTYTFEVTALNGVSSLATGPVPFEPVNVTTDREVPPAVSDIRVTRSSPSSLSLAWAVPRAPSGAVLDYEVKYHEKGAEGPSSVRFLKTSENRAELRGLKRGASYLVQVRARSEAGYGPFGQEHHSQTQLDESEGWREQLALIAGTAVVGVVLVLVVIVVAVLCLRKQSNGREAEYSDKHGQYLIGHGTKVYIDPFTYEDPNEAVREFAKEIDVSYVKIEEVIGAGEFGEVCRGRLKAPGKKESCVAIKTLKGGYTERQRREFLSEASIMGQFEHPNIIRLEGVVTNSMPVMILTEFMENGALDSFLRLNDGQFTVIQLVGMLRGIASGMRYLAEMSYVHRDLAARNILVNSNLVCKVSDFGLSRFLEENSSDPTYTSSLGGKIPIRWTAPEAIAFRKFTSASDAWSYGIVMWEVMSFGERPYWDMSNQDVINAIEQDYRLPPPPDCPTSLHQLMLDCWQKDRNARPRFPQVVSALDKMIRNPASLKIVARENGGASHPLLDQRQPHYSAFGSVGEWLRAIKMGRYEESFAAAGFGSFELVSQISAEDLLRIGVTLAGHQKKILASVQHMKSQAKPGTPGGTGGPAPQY
The note with it: at 10 µM.

The target in assay [4] is Serine/threonine-protein kinase Nek6 (Homo sapiens) (UniProt Q9HC98). In words: Selectivity interaction (KinomeScan (DiscoverX)) EUB0000655a NEK6. The note with it: at 10 µM.
Assay [5] has as its target Ribosomal protein S6 kinase alpha-2 (Homo sapiens) (UniProt Q15349). In words: Selectivity interaction (Kinase panel (Invitrogen)) EUB0000639a RPS6KA2. The following applies: at 200 nM.
Assay [6] can be described thus: Selectivity interaction (Calcium Channel (L) receptor assay: rat brain ) EUB0000877a CACNA1C.

Ribosomal protein S6 kinase alpha-2 (Homo sapiens), sequence (Q15349 whole entry): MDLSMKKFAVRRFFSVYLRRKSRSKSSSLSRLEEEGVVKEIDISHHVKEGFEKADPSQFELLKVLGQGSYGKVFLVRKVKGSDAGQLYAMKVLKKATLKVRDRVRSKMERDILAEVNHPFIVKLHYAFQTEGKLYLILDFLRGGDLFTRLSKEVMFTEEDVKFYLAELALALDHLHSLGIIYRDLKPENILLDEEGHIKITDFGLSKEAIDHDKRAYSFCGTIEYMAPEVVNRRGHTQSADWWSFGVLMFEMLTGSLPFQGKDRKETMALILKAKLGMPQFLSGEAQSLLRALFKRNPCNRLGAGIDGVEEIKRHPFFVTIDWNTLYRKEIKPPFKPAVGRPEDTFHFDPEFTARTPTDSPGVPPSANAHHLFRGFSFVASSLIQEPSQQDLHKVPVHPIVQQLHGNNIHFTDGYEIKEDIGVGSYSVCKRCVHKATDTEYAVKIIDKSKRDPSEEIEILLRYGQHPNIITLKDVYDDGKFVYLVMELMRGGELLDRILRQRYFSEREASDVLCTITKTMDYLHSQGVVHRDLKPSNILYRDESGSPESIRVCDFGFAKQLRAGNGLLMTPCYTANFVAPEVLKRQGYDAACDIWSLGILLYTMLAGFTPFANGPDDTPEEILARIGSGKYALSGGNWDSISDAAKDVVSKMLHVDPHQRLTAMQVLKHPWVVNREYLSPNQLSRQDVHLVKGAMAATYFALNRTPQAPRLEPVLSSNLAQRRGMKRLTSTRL
Serine/threonine-protein kinase Nek6 (Homo sapiens), sequence (Q9HC98 whole entry): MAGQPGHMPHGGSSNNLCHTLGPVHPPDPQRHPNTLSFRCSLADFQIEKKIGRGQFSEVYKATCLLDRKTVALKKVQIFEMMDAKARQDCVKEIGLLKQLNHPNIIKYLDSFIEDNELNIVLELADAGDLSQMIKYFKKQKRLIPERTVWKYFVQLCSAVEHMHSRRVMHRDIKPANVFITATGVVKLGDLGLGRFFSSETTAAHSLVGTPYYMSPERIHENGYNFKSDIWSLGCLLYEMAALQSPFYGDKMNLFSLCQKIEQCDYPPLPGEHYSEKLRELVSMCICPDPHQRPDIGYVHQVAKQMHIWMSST

`Cc1ccc(-c2ccc3c(ccc4sc5c(c43)NC[C@@H](C)NC5=O)n2)cn1`: the % of inhibition in assay [1] amounted to 6%.
Consider `CC(C)(O)[C@H](F)CN1Cc2cc(NC(=O)c3cnn4cccnc34)c(N3CCOCC3)cc2C1=O`, for which the dTM in assay [2] was -0.5 K.
`CCN(CC)CCCCNc1ncc2cc(-c3cc(OC)cc(OC)c3)c(NC(=O)NC(C)(C)C)nc2n1` returned a % of control in assay [3] of 100%.
Consider `CN(C)CCOc1ccc(-c2nc(-c3ccncc3)c(-c3ccc4c(c3)CC/C4=N\O)[nH]2)cc1`, for which the % of control in assay [4] is 100%.
For `CC[C@@H]1[C@H](F)C(=O)N[C@@H]1COc1nccc2cc(C(N)=O)c(OC)cc12` [ZIMLOVISERTIB], the % of inhibition in assay [5] was -0.472%.
Turning to `CCC(=O)N1CC[C@H](Nc2ncnc3c2CN(c2cnc(OC)c(C(F)(F)F)c2)CC3)C1` [LENIOLISIB], in assay [6], the IC50 – broadly, the concentration that gives 50% inhibition – is greater than 30 µM.
